Results reported in ChEMBL document CHEMBL1201862, “PubChem BioAssay data set” (2004).
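Grown in 96-well plates, cells were treated for 48 hours with each compound at five concentrations. Insufficient inhibition: endpoint recorded as highest concentration tested. Here, GI50 denotes the concentration required for 50% inhibition of growth.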 Activity calls are given as the source filed them. Cut-off read from the data, not from the text of the source: active = GI50 up to about 1.1 µM and inactive = higher.

Key:
Assay in all cases: NCI tumour cell line growth inhibition, 48 h
HT-29 = tested on: HT-29
NCI-H460 = tested on: NCI-H460
SN12C = tested on: SN12C
SK-MEL-5 = tested on: SK-MEL-5
U-251 = tested on: U-251
BT-549 = tested on: BT-549
SNB-19 = tested on: SNB-19
SF-268 = tested on: SF-268
SK-OV-3 = tested on: SK-OV-3
TK-10 = tested on: TK-10
UACC-62 = tested on: UACC-62
NCI/ADR-RES = tested on: NCI/ADR-RES
NCI-H226 = tested on: NCI-H226
K562 = tested on: K562
T47D = tested on: T47D
SF-295 = tested on: SF-295
NCI-H23 = tested on: NCI-H23
HCC 2998 = tested on: HCC 2998
HOP-92 = tested on: HOP-92
OVCAR-5 = tested on: OVCAR-5
HCT-116 = tested on: HCT-116
MOLT-4 = tested on: MOLT-4
CAKI-1 = tested on: CAKI-1
DU-145 = tested on: DU-145
SW-620 = tested on: SW-620
UACC-257 = tested on: UACC-257
OVCAR-8 = tested on: OVCAR-8
EKVX = tested on: EKVX
COLO 205 = tested on: COLO 205
IGROV-1 = tested on: IGROV-1
SK-MEL-2 = tested on: SK-MEL-2
OVCAR-3 = tested on: OVCAR-3
A549 = tested on: A549
SR = tested on: SR
M14 = tested on: M14
ACHN = tested on: ACHN
MDA-MB-231 = tested on: MDA-MB-231
Malme-3M = tested on: Malme-3M
UO-31 = tested on: UO-31
MDA-N = tested on: MDA-N
NCI-H522 = tested on: NCI-H522
HCT-15 = tested on: HCT-15
RPMI-8226 = tested on: RPMI-8226
MCF7 = tested on: MCF7
SF-539 = tested on: SF-539
SK-MEL-28 = tested on: SK-MEL-28
PC-3 = tested on: PC-3
RXF 393 = tested on: RXF 393
KM12 = tested on: KM12
786-0 = tested on: 786-0
Hs-578T = tested on: Hs-578T
HOP-62 = tested on: HOP-62
MDA-MB-435 = tested on: MDA-MB-435
OVCAR-4 = tested on: OVCAR-4
SNB-75 = tested on: SNB-75
LOX IMVI = tested on: LOX IMVI
CCRF-CEM = tested on: CCRF-CEM
HL-60 = tested on: HL-60

`O=C(/C=C/c1ccccc1)/C=N/N1C(=S)N(c2ccccc2)C(=N\c2ccccc2)/C1=N/c1ccccc1` was tested, and the GI50 (HT-29) was > 100 µM (inactive), the GI50 (NCI-H460) was 58.7 µM (inactive) and the GI50 (SN12C) was > 100 µM (inactive). The GI50 (SK-MEL-5) was > 100 µM (inactive), the GI50 (U-251) was > 100 µM (inactive) and the GI50 (BT-549) was > 100 µM (inactive). The GI50 (SNB-19) was > 100 µM (inactive), the GI50 (SF-268) was > 100 µM (inactive) and the GI50 (SK-OV-3) was > 100 µM (inactive). The GI50 (TK-10) was > 100 µM (inactive), the GI50 (UACC-62) was > 100 µM (inactive) and the GI50 (NCI/ADR-RES) was > 100 µM (inactive). The GI50 (NCI-H226) was > 100 µM (inactive), the GI50 (K562) was > 100 µM (inactive) and the GI50 (T47D) was > 100 µM (inactive). For the same molecule, the GI50 (SF-295) was > 100 µM (inactive), the GI50 (NCI-H23) was > 100 µM (inactive) and the GI50 (HCC 2998) was > 100 µM (inactive). The GI50 (HOP-92) was > 100 µM (inactive), the GI50 (OVCAR-5) was > 100 µM (inactive) and the GI50 (HCT-116) was 43.1 µM (inactive). The GI50 (MOLT-4) was > 100 µM (inactive), the GI50 (CAKI-1) was > 100 µM (inactive) and the GI50 (DU-145) was > 100 µM (inactive). For the same molecule, the GI50 (SW-620) was > 100 µM (inactive), the GI50 (UACC-257) was > 100 µM (inactive) and the GI50 (OVCAR-8) was > 100 µM (inactive). The GI50 (EKVX) was > 100 µM (inactive), the GI50 (COLO 205) was > 100 µM (inactive) and the GI50 (IGROV-1) was > 100 µM (inactive). The GI50 (SK-MEL-2) was > 100 µM (inactive), the GI50 (OVCAR-3) was > 100 µM (inactive) and the GI50 (A549) was > 100 µM (inactive). For the same molecule, the GI50 (SR) was > 100 µM (inactive), the GI50 (M14) was > 100 µM (inactive) and the GI50 (ACHN) was > 100 µM (inactive). The GI50 (MDA-MB-231) was > 100 µM (inactive), the GI50 (Malme-3M) was > 100 µM (inactive) and the GI50 (UO-31) was > 100 µM (inactive). The GI50 (MDA-N) was 82.4 µM (inactive), the GI50 (NCI-H522) was 11.2 µM (inactive) and the GI50 (HCT-15) was greater than 100 µM. The GI50 (RPMI-8226) was > 100 µM (inactive), the GI50 (MCF7) was 33 µM (inactive) and the GI50 (SF-539) was > 100 µM (inactive). The GI50 (SK-MEL-28) was > 100 µM (inactive), the GI50 (PC-3) was > 100 µM (inactive) and the GI50 (RXF 393) was 38.8 µM (inactive). The GI50 (KM12) was > 100 µM (inactive), the GI50 (786-0) was > 100 µM (inactive) and the GI50 (Hs-578T) was > 100 µM (inactive). For the same molecule, the GI50 (HOP-62) was > 100 µM (inactive).

`CCCc1cc(=O)oc2c3c(c4c(c12)OC(C)(C)CC4)O[C@H](C)[C@@H](C)[C@H]3O` was tested, and the GI50 (HT-29) was 10 µM (inactive), the GI50 (NCI-H460) was 19 µM (inactive) and the GI50 (SN12C) was 16.4 µM (inactive). For the same molecule, the GI50 (SK-MEL-5) was 15.1 µM (inactive), the GI50 (U-251) was 13.9 µM (inactive) and the GI50 (BT-549) was 13.4 µM (inactive). For the same molecule, the GI50 (SNB-19) was 16.6 µM (inactive), the GI50 (SF-268) was 17.4 µM (inactive) and the GI50 (SK-OV-3) was 17.5 µM (inactive). For the same molecule, the GI50 (UACC-62) was 14.1 µM (inactive), the GI50 (NCI/ADR-RES) was 11.2 µM (inactive) and the GI50 (NCI-H226) was 15.6 µM (inactive). For the same molecule, the GI50 (K562) was 2.52 µM (inactive), the GI50 (T47D) was 12 µM (inactive) and the GI50 (SF-295) was 16.2 µM (inactive). For the same molecule, the GI50 (MDA-MB-435) was 11.5 µM (inactive), the GI50 (NCI-H23) was 16 µM (inactive) and the GI50 (HCC 2998) was 16.6 µM (inactive). The GI50 (HOP-92) was 18.3 µM (inactive), the GI50 (OVCAR-5) was 16.7 µM (inactive) and the GI50 (HCT-116) was 15.5 µM (inactive). The GI50 (MOLT-4) was 12.4 µM (inactive), the GI50 (CAKI-1) was 20.5 µM (inactive) and the GI50 (DU-145) was 16.1 µM (inactive). The GI50 (SW-620) was 17 µM (inactive), the GI50 (UACC-257) was 14.8 µM (inactive) and the GI50 (OVCAR-8) was 15.5 µM (inactive). For the same molecule, the GI50 (EKVX) was 12.6 µM (inactive), the GI50 (COLO 205) was 15.7 µM (inactive) and the GI50 (IGROV-1) was 15.6 µM (inactive). The GI50 (SK-MEL-2) was 24.7 µM (inactive), the GI50 (OVCAR-3) was 18.5 µM (inactive) and the GI50 (A549) was 20 µM (inactive). For the same molecule, the GI50 (M14) was 16.1 µM (inactive), the GI50 (OVCAR-4) was 14.2 µM (inactive) and the GI50 (MDA-MB-231) was 14.1 µM (inactive). For the same molecule, the GI50 (Malme-3M) was 21.9 µM (inactive), the GI50 (UO-31) was 13.8 µM (inactive) and the GI50 (SNB-75) was 16.4 µM (inactive). The GI50 (MDA-N) was 5.56 µM (inactive), the GI50 (LOX IMVI) was 14.8 µM (inactive) and the GI50 (HCT-15) was 13.4 µM. The GI50 (RPMI-8226) was 4.82 µM (inactive), the GI50 (MCF7) was 16.3 µM (inactive) and the GI50 (SF-539) was 21.4 µM (inactive). The GI50 (PC-3) was 10.1 µM (inactive), the GI50 (RXF 393) was 21.3 µM (inactive) and the GI50 (CCRF-CEM) was 14.1 µM (inactive). The GI50 (KM12) was 12.8 µM (inactive), the GI50 (786-0) was 15.7 µM (inactive) and the GI50 (Hs-578T) was 22.6 µM (inactive). For the same molecule, the GI50 (HOP-62) was 16.6 µM (inactive).

In the case of `CCOC(=O)C1(C#N)CC1`, the GI50 (HT-29) is reported as > 100 µM (inactive), the GI50 (NCI-H460) is reported as > 100 µM (inactive) and the GI50 (SN12C) is reported as > 100 µM (inactive). For the same molecule, the GI50 (SK-MEL-5) was > 100 µM (inactive), the GI50 (U-251) was > 100 µM (inactive) and the GI50 (BT-549) was > 100 µM (inactive). For the same molecule, the GI50 (SNB-19) was > 100 µM (inactive), the GI50 (HL-60) was > 100 µM (inactive) and the GI50 (SF-268) was > 100 µM (inactive). The GI50 (SK-OV-3) was > 100 µM (inactive), the GI50 (TK-10) was > 100 µM (inactive) and the GI50 (UACC-62) was > 100 µM (inactive). For the same molecule, the GI50 (NCI/ADR-RES) was > 100 µM (inactive), the GI50 (NCI-H226) was > 100 µM (inactive) and the GI50 (K562) was > 100 µM (inactive). For the same molecule, the GI50 (T47D) was > 100 µM (inactive), the GI50 (SF-295) was > 100 µM (inactive) and the GI50 (NCI-H23) was > 100 µM (inactive). The GI50 (HCC 2998) was > 100 µM (inactive), the GI50 (OVCAR-5) was > 100 µM (inactive) and the GI50 (HCT-116) was > 100 µM (inactive). The GI50 (MOLT-4) was > 100 µM (inactive), the GI50 (CAKI-1) was > 100 µM (inactive) and the GI50 (DU-145) was > 100 µM (inactive). The GI50 (SW-620) was > 100 µM (inactive), the GI50 (UACC-257) was > 100 µM (inactive) and the GI50 (OVCAR-8) was > 100 µM (inactive). For the same molecule, the GI50 (EKVX) was > 100 µM (inactive), the GI50 (COLO 205) was > 100 µM (inactive) and the GI50 (IGROV-1) was > 100 µM (inactive). For the same molecule, the GI50 (SK-MEL-2) was > 100 µM (inactive), the GI50 (A549) was > 100 µM (inactive) and the GI50 (SR) was > 100 µM (inactive). The GI50 (M14) was > 100 µM (inactive), the GI50 (ACHN) was > 100 µM (inactive) and the GI50 (OVCAR-4) was > 100 µM (inactive). For the same molecule, the GI50 (MDA-MB-231) was > 100 µM (inactive), the GI50 (Malme-3M) was > 100 µM (inactive) and the GI50 (UO-31) was > 100 µM (inactive). For the same molecule, the GI50 (SNB-75) was > 100 µM (inactive), the GI50 (MDA-N) was > 100 µM (inactive) and the GI50 (LOX IMVI) was > 100 µM (inactive). The GI50 (NCI-H522) was > 100 µM (inactive), the GI50 (HCT-15) was greater than 100 µM and the GI50 (MCF7) was > 100 µM (inactive). For the same molecule, the GI50 (SF-539) was > 100 µM (inactive), the GI50 (SK-MEL-28) was > 100 µM (inactive) and the GI50 (PC-3) was > 100 µM (inactive). The GI50 (RXF 393) was 7.94 µM (inactive), the GI50 (CCRF-CEM) was > 100 µM (inactive) and the GI50 (KM12) was > 100 µM (inactive). For the same molecule, the GI50 (786-0) was > 100 µM (inactive), the GI50 (Hs-578T) was > 100 µM (inactive) and the GI50 (HOP-62) was > 100 µM (inactive).
